Active and inactive are the calls of the source.
Tests used:
[1] = NIH-3T3 fibroblast cytotoxicity, dose response, cytotoxicity control, cell-based, fluorescence, Alamar Blue, secondary assay (AID 2327); type: functional;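 also: NIH-3T3 mouse fibroblasts cultured with fluconazole at 8 µg/mL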
[2] = fluconazole-exposed Candida albicans growth modulators – fluorescence, retest, confirmation (AID 2467); type: functional, cell-based
Vero = test: cells; type: functional; conditions: Chlorocebus sabaeus
[3] = molecular target: T1, Calpain-2 catalytic subunit (Sus scrofa, UniProt P43367); test: m-calpain protease blockers, concentration series – biochemical, fluorogenic peptide substrate, dose response (AID 1420); type: functional
T1 sequence (P43367 whole entry): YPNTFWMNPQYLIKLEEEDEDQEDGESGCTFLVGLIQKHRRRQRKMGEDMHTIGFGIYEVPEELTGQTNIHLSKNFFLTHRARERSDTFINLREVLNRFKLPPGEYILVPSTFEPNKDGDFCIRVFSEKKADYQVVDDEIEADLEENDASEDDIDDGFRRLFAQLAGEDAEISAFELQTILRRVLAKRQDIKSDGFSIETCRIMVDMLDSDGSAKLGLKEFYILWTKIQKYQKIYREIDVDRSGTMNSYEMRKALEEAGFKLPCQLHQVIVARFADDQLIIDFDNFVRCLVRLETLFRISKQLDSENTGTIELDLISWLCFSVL

[4] = system: Streptococcus sp. 'group A'; test: Streptococcus pyogenes SK(-)GAS viability under kanamycin – luminescence, BacTiterGlo, confirmation, counter-screen for streptokinase expression inhibitor project, dose response (AID 1900); type: functional, organism-based
Streptococcus = test: GAS UMAA2166 growth inhibition – luminescence, BacTiterGlo, counter-screen for streptokinase expression inhibitor project, dose response (AID 1915); type: functional, organism-based;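 also: potency for reduction of bacterial viability or growth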
Large T antigen = Large T antigen (Simian virus 40, UniProt P03070); type: functional, Betapolyomavirus macacae;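 also: Confirmatory-stage PubChem screen for compounds that inhibit SV40 T antigen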
Large T antigen, sequence (P03070 whole entry): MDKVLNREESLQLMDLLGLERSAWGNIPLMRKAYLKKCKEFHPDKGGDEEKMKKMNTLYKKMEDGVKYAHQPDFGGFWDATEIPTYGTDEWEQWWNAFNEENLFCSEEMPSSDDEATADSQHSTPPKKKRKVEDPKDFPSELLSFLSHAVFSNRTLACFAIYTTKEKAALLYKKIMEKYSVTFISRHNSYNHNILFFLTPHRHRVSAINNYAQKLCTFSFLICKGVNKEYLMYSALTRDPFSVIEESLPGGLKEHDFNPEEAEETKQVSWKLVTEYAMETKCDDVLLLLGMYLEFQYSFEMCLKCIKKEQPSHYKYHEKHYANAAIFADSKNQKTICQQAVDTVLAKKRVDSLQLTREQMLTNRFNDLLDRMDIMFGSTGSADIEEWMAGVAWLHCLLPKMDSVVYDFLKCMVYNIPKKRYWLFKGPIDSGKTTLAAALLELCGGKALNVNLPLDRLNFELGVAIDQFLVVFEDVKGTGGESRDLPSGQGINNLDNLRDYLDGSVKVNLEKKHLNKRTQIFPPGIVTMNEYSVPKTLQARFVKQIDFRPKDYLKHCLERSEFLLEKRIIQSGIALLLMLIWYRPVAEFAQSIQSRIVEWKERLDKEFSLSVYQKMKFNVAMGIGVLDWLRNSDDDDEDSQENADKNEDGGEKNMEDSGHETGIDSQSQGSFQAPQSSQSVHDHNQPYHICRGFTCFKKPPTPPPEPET

Streptokinase A = molecular target: T2, Streptokinase A (Streptococcus pyogenes serotype M1, UniProt P10520); test: viability-normalized secreted streptokinase activity reduction – plasminogen activation absorbance, OD405, dose response (AID 1914); type: functional, Streptococcus pyogenes M1 GAS;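 also: secreted streptokinase activity via plasminogen activation per viability signal from cell pellet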
T2 sequence (P10520 whole entry): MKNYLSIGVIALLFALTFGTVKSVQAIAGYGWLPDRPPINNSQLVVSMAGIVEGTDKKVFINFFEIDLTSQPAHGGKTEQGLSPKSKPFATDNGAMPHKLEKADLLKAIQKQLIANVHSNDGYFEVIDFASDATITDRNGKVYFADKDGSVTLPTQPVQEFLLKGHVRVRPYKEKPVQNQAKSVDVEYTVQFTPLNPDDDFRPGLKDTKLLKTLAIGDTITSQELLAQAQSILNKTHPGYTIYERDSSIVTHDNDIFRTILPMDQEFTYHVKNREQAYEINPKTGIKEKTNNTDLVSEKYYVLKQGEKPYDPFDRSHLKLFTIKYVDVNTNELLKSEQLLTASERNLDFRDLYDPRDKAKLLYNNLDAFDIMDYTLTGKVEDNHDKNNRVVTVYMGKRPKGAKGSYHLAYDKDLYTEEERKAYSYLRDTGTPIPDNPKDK

H9c2 = test: cells; type: functional, cell-based; conditions: Rattus norvegicus, H9c2, Myocardium;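 also: confirmatory concentration-response retest of ultra-high-throughput screening hits for modulation of myocardial damage; cell death induced by hydrogen peroxide oxidative stress; compound pretreatment for 60 min then peroxide exposure for 2 h; potency is for protecting the cells against peroxide damage rather than for killing them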
[5] = molecular target: T3, Polyadenylate-binding protein 1 (Homo sapiens, UniProt P11940); test: MLLE domain peptide-binding blockers, IC50 – biochemical, fluorescence polarization, FITC-PAM2 peptide, dose response (AID 602259); type: functional; conditions: read-out: IC50_Mean
T3 sequence (P11940 whole entry, the tested form may be a part): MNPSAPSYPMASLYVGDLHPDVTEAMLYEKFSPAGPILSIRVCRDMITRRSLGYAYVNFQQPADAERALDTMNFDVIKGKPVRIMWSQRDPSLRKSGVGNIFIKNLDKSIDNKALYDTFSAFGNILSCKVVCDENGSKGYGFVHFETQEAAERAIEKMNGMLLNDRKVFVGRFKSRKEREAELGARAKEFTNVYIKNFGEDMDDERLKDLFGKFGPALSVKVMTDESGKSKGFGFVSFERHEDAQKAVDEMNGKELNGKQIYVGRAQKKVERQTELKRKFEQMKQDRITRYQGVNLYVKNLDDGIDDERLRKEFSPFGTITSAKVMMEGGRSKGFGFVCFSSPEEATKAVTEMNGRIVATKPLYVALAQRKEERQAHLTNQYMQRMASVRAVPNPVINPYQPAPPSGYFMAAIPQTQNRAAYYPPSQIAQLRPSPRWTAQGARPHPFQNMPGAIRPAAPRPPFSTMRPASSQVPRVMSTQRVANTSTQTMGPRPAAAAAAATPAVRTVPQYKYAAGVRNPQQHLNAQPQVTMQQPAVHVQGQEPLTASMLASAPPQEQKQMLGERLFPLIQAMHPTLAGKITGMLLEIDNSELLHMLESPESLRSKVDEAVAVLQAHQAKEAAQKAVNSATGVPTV

[6] = molecular target: T3, Polyadenylate-binding protein 1; test: MLLE binding blockers, Cy5 peptide tracer – biochemical, fluorescence polarization, Cy5-PAM2 peptide, secondary, miRNA deadenylation inhibitor project, dose response (AID 602260); type: functional; conditions: read-out: IC50_Mean
[7] = molecular target: FAD-linked sulfhydryl oxidase ALR (Homo sapiens, UniProt P55789); test: ALR-catalysed DTT oxidation blockers – biochemical, H2O2 detection, luminescence, cherry-pick, dose response (AID 493248)
FAD-linked sulfhydryl oxidase ALR, sequence (P55789 whole entry): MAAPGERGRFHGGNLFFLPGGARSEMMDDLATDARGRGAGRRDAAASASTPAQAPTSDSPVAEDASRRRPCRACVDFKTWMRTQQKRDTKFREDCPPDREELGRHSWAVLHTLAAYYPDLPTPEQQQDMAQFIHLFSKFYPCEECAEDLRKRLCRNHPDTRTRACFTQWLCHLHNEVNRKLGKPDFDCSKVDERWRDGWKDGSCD

[8] = molecular target: T4, Ubiquitin-conjugating enzyme E2 N (Homo sapiens, UniProt P61088); type: functional;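 also: Dose-response confirmation in a TR-FRET assay detecting UBC13-driven polyubiquitin chain formation, inhibition measured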
T4 sequence (P61088 whole entry): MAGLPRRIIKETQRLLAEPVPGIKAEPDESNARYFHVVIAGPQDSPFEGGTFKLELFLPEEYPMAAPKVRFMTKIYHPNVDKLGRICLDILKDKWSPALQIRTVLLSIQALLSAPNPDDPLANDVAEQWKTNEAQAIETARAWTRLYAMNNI

SN12K1 = test: cells; type: functional
P388 = test: cells; type: functional;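 also: compound exposure lasted 48 hours before growth was measured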
HEK293 = test: EBV LMP1 TES2 canonical NF-kB signalling blockers – cell-based, HEK293, luciferase, cherry-pick, dose response (AID 588343); type: functional; conditions: Homo sapiens
[9] = Luminescence Cell-Based Dose Retest to Confirm Inhibitors of Cancer Stem Cells. [Related pubchem assays (depositor defined):AID2717, AID2721]; type: functional; conditions: Homo sapiens
cells = type: functional
[10] = molecular target: T5, Rac GTPase-activating protein 1 (Homo sapiens, UniProt Q9H0H5); test: blockers of MgcRacGAP-driven Rac1 GTP hydrolysis – biochemical, ADP Hunter fluorescence, primary and confirmatory, confirmation (AID 624330); type: functional
T5 sequence (Q9H0H5 whole entry): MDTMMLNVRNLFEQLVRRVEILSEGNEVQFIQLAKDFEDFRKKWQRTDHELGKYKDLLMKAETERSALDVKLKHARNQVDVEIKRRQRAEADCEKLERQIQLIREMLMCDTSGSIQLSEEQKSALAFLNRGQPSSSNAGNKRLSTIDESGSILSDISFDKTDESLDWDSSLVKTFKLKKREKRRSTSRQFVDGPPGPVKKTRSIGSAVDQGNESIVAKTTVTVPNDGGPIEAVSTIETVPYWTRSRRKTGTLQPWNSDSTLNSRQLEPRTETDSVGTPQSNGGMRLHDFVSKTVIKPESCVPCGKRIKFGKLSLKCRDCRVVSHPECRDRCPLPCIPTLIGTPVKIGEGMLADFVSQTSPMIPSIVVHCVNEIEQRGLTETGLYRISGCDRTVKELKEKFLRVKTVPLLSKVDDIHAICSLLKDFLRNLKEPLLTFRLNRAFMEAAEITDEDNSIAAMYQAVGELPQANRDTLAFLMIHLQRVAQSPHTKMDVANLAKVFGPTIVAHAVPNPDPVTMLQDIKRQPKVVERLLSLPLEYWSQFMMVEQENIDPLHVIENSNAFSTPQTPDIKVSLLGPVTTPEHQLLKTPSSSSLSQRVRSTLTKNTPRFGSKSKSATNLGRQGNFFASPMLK

[11] = molecular target: T6, Heat shock factor protein 1 (Mus musculus, UniProt P38532); test: decrease of HSF1-responsive luciferase luminescence – cell-based, NIH3T3, dose retest, confirmation (AID 2382); type: functional;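 also: NIH3T3 fibroblasts with HSF1-driven luciferase reporter stressed by proteasome inhibitor MG132; luminescence from HSF1-driven luciferase expression after 8 hours of MG132 stress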
T6 sequence (P38532 whole entry): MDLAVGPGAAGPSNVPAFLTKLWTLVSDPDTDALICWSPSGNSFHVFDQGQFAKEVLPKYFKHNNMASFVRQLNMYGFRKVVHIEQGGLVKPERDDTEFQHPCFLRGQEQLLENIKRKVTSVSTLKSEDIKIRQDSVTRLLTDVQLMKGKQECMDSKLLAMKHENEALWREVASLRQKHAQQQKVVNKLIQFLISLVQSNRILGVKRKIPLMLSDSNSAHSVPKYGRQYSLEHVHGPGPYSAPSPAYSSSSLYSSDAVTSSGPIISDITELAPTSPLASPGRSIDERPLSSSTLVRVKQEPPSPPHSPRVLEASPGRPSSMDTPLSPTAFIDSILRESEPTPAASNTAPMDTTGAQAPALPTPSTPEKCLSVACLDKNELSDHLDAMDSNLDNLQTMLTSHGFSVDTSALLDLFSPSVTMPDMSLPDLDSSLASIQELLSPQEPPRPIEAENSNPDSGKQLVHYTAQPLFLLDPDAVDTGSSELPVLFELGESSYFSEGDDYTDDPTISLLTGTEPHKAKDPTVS

Compound: Cc1c(O)cc2n(c1=O)-c1ccc(Cl)cc1C2(C)C
- EC50 [1]: > 150 µM (inactive)
- EC50 [2]: 2 µM (active)

Compound: CCCN1CCN(CCCNC(=O)c2cc3c(O)nc4ccc(C)cc4c3s2)CC1
- CC50 (Vero): > 25 µM (active)

Compound: COc1ccc(CCNC(=O)CCC2COc3ccccc3O2)cc1OC (stereo not given)
- EC50 [1]: > 150 µM (inactive)
- EC50 [2]: 16.9 µM (active)

Compound: Cc1ccc(NCc2nnc(SCC(=O)N(Cc3ccccc3)C(C)(C)C)o2)c(C)c1
- IC50 [3]: 5.13 µM (not active)

Compound: CC(=O)O[C@H]1C[C@@]2(C)[C@@H](C[C@@H](O)[C@H]3[C@@]4(C)CC[C@@H](O)[C@@H](C)C4CC[C@@]32C)/C1=C(\CCC=C(C)C)C(=O)O (stereo not given in full)
- EC50 [4]: 2.26 µM (active)
- EC50 (Streptococcus): 13.7 µM (active)
- IC50 (Large T antigen): 24.7 µM (active)
- EC50 (Streptokinase A): 1.78 µM (active)

Compound: CCc1ccc(C(C)NC(=O)c2cc(C)oc2C)cc1 (stereo not given)
- IC50 (H9c2): > 79 µM (inactive)

Compound: c1cc2[nH]c(C3CC3)nc2c2nsnc12
- IC50 (H9c2): > 79 µM (inactive)

Compound: CC(NC(=O)Nc1ccccc1F)C(C)(C)C (stereo not given)
- EC50 [1]: > 160 µM (inconclusive)

Compound: COc1cc(NS(=O)(=O)c2ccc(NC(=S)NC(=O)c3sc4ccccc4c3Cl)cc2)nc(OC)n1
- IC50 [5]: > 66 µM (inactive)
- IC50 [3]: > 50 µM (not active)
- IC50 [6]: > 66 µM (inactive)

Compound: C(=C\c1ccccc1)/C=N/Nc1nc(N2CCCCC2)nc(N2CCCCC2)n1
- EC50 [1]: > 150 µM (inactive)
- EC50 [2]: > 38 µM (not active)

Compound: CN1CCN(S(=O)(=O)c2ccc(N3CCN(c4ccc(O)cc4)CC3)c([N+](=O)[O-])c2)CC1
- AC50 [7]: 2.62 µM (active)
- IC50 (Large T antigen): 8.6 µM (active)

Compound: CC[C@H](C)[C@@H]1NC(=O)c2cc([N+](=O)[O-])cc(F)c2NCCCC[C@@H](C(N)=O)NC(=O)[C@H](CCCCN)NC1=O
- IC50 [8]: > 20 µM (inactive)

Compound: COc1ccccc1CN(C)C(=O)c1cc(-c2cc(OC)c(OC)c(OC)c2)nc2ccccc12
- IC50 (H9c2): 29.1 µM (active)

Compound: CCCCCCCCCCSCC(CO)NC(=O)/C=C/c1c(C)[nH]c(=O)[nH]c1=O (stereo not given)
- GI50 (SN12K1): 1.26 µM (inactive)
- GI50 (SN12K1; Homo sapiens, SN12K1): 1.05 µM (active)
- GI50 (P388): 0.479 µM (active)
- GI50 (P388; Mus musculus, P388): 0.284 µM (active)

Compound: NC(=S)NN=Cc1nccc2c(C(F)(F)F)cccc12
- AC50 (HEK293): 1.77 µM (active)
- CC50 (Vero): 2.01 µM (active)

Compound: O=C(NCCCN1CCOCC1)c1ccc(CSc2ccc(Cl)cc2)cc1
- AC50 [9]: 1.25 µM (active)
- IC50 (cells): 34.3 µM (active)
- CC50 (Vero): > 25 µM (active)

Compound: Cc1[nH]c2ccccc2c1/C=N\NC(=O)Cn1nnc(-c2ccccc2)n1
- IC50 [3]: > 50 µM (not active)

Compound: Cc1ccc(S(=O)(=O)N2CCCCC2)cc1NC(=O)COC(=O)c1ccc2c(c1)OCO2
- IC50 [3]: 1.74 µM (not active)

Compound: Cc1ccc(CN(C(=O)CNC(=O)c2cccs2)C(C(=O)NCC2CCCO2)c2ccccc2)cc1 (stereo not given)
- IC50 (H9c2): > 79 µM (inactive)

Compound: CCOc1cc(/C=C2/N=C(C)C(C(=O)OC)=C2O)ccc1O
- IC50 [10]: 26.3 µM (active)
- IC50 (Large T antigen): 5.78 µM (active)

Compound: C#CCOCCOCCOCCNc1nc(N2CCN(C(=O)[C@H]([C@@H](C)CC)n3cc([C@@H](N)Cc4ccc(O)cc4)nn3)CC2)nc(N2CCN(C(=O)[C@H](CCCCN)n3cc([C@@H](N)CO)nn3)CC2)n1
- IC50 [8]: > 20 µM (inactive)

Compound: CCc1nnc(NC(=O)CSc2nnc(CNc3ccc(OC)cc3)n2C)s1
- IC50 (H9c2): 28.3 µM (active)

Compound: CC(C)n1c(O)c(N=NC(=O)CNC(=O)CCc2ccccc2)c2ccccc21
- IC50 [3]: > 50 µM (not active)

Compound: Cc1cc(C)cc(SCc2noc(C(=O)NCc3ccccc3)c2C(=O)NCc2ccccc2)c1
- EC50 [11]: > 195 µM (not active)
- IC50 [3]: 6.27 µM (not active)

Compound: O=c1c2cc(-c3ccccc3)sc2nc2n1N=C(c1ccccc1)CS2
- CC50 (Vero): > 25 µM (active)

Compound: O=C(Nc1nc(-c2cc(F)ccc2F)cs1)C1=NN(c2ccccc2)C(=O)CC1
- IC50 (H9c2): > 79 µM (inactive)

Compound: CCOc1ccc2nc(N(CCCN(C)C)C(=O)c3ccc(C(=O)c4ccccc4)cc3)sc2c1
- IC50 [8]: > 20 µM (inactive)

Compound: CCOC(=O)C(=NC1CCCCC1)NNc1cccc(C(F)(F)F)c1
- EC50 [1]: > 150 µM (inconclusive)
- EC50 [2]: > 38 µM (not active)

Compound: CN(C)/N=C/c1cc([N+](=O)[O-])ccc1O
- IC50 [3]: 13.8 µM (not active)

Compound: O=C(NCC1CCN(Cc2ccccc2F)CC1)C1CCCN(c2ncnc3c2nc2n3CCCCC2)C1 (stereo not given)
- IC50 [8]: > 20 µM (inactive)

Compound: Cc1cccc(NC(=O)CN2C(=O)N/C(=C/c3cc(C)n(-c4cccnc4)c3C)C2=O)c1
- IC50 [3]: > 50 µM (not active)

Compound: COc1ccc2[nH]cc(CCNC(=O)Nc3ccccc3)c2c1
- IC50 [8]: > 20 µM (inactive)

— ChEMBL document CHEMBL1201862, “PubChem BioAssay data set” (2004)
